Key:
plasma [1] = assay: Anticoagulant activity: prothrombin time (PT), Sysmex CA-1500; format: biochemical, human; conditions: 20 μl sample + 80 μl plasma, test material g/dL as in label, Asp 7.5 mg/ml, N=3
Procedure: (§1) Antithrombotic (anticoagulant) activity was evaluated according to a previously reported method. Each of thromborel S, actin and thrombin, which are reagents for Sysmex CA-1500 for analysis of PT, aPTT and TT, was mounted in Sysmex CA-1500 (Siemens Healthcare, Germany) which is an automated blood coagulation test device. According to the automated procedure of the test device, clotting time (sec) (prothrombin time (PT), activated partial thromboplastin time (aPTT) and thrombin time (TT)) was measured. A sufficient amount of a sample for each of the three analyses was about 400 uL of an 80:20 mixture of plasma and a test substance.
(§2) The isolated plasma was used in an experiment in a fresh state within 5-6 hours.
(§3) In this experiment, for the relative comparison of the measured clotting time (sec) (PT, aPTT and TT) between test groups, clotting time prolongation (%) relative to triple distilled water (purified water) that is a normal control test sample was statistically analyzed. For statistical analysis, the […] anticoagulant activities of test materials were comparatively analyzed using SPSS IBM version 21.0 by one-way ANOVA at p<0.05, and significance comparison between groups was performed by Duncan's test.
The aspirin solution was immediately used at room temperature in a light-shielded state or was cold-stored.
As a control, aspirin was used, and as a vehicle control, triple distilled water (purified water) was used instead of the sample.

plasma [2] = assay: Anticoagulant activity: activated partial thromboplastin time (aPTT), Sysmex CA-1500; format: biochemical, human; conditions: Table 4; 20 μl sample + 80 μl plasma; test material g/dL as in label; Asp 7.5 mg/ml; N=3
Procedure: as §1, §2, §3
The aspirin solution was immediately used at room temperature in a light-shielded state or was cold-stored. […]

[3] = tested on: male mice (C57BL/6) fed high-fat diet; assay: Body weight and body weight gain of high-fat diet mice; format: in vivo; conditions: for Body weight gain, Mean: HFD mice, metformin 250 mg/kg; for body weight gain compared to high-fat diet (HFD) alone (in words): at 8 weeks after HFD feeding; for Body weight gain: mean
Procedure: (§4) Using 8-week-old male mice (C57BL/6) (purchased from CoreTech), anti-diabetic candidate materials were evaluated using a GTT (Glucose Tolerance Test) that is a typical method for diagnosis of diabetes.
(§5) Mice were housed at a temperature of 22±2° C. and a relative humidity of 55-60% with 12-hr light/12-hr dark cycles. Five animals were allotted to each group, and mice from the same mother were grouped into one group, because male mice tend to fight together.
(§6) As feed, high-fat diet (60% of calories from fat; Research Diet Inc., New Brunswick, N.J.) and water were fed ad libitum for 10 weeks. Herein, the water fed contained the samples prepared in Examples 1-2 (3), 2-1, 2-4-1, 2-4-2 and 2-5. As a positive control, metformin (M-072, Sigma) (250 mg/kg) was used, and as a control, the samples prepared in Comparative Examples 1-1, 2-3-2, 2-5-1, 2-5-2 and 2-6 were used.
(§7) For reference, each of the samples prepared in Examples 2-4-1, 2-4-2 and 2-5 was set to the amount to be taken by an adult (60 kg) for 3 days, and the amount was converted into a mouse dose (12-fold/kg, see the US NIH guidance), thereby preparing animal feed. Namely, the amount to be taken by an adult (60 kg) for 3 days is 180-day dose/kg, which corresponds to 15-day dose/kg for mice. Thus, the amount corresponds to 750-day dose/mouse (20 g), because the average weight of mice is about 20 g. Thus, one mouse was allowed to take 1/750 of the prepared sample each day.
(§8) In addition, each of the samples prepared in Examples 1-2 (3) and 2-1 was set to the amount to be taken by an adult (60 kg) for 2 days, and the amount was converted into a mouse dose (12-fold/kg, see the US NIH guidance), thereby preparing animal feed. Namely, the amount to be taken by an adult (60 kg) for 2 days is 120-day dose/kg, which corresponds to 10-day dose/kg for mice. Thus, the amount corresponds to 500-day dose/mouse (20 g), because the average weight of mice is about 20 g. Thus, one mouse was allowed to take 1/500 of the prepared sample each day.
The diet intake and the body weight gain were measured weekly for 8 weeks. The body weight and the diet intake were measured immediately before first drug administration, and then measured at one-week intervals.
(§9) Meanwhile, experimental analysis results were expressed as mean±S.E.M., and the significance between test groups was statistically processed using Student T-TEST, and then the significance was verified at *P<0.05.

[4] = tested on: male mice (C57BL/6) fed high-fat diet; assay: Glucose tolerance test (GTT) in high-fat diet mice; format: in vivo; conditions: for fasting glucose level (in words) / glucose control ability in GTT compared with HFD alone (in words): 8 weeks of HFD; for fasting glucose level (in words): 8 h fasting, compared with HFD alone, normal mice or other group; for glucose control ability in GTT compared with HFD alone (in words): glucose 1 g/kg i.p.; for Glucose level: mean
Procedure: as §4, §5, §6, §7, §8
At 8 weeks of high-fat diet feeding, a glucose tolerance test (GTT) was performed. For 8 hours for the test, mice were fasted. Then, blood was sampled from the tail vein, and initial blood glucose levels were measured with a blood glucose meter (AUTO-CHEK, Diatech Korea). Then, glucose was administered intraperitoneally to the mice at a concentration of 1 g/kg, and after 30 min, 60 min, 90 min and 120 min, blood was sampled from the mice, followed by measurement of blood glucose levels (each group consisting of five animals).
as §9

[5] = tested on: male mice (C57BL/6) fed high-fat diet; assay: Blood biochemistry (triglyceride, AST, ALT) in high-fat diet mice; format: in vivo
Procedure: as §6, §7, §8
In blood biochemistry, insulin (AKRIN-011T, Shibayagi, Japan), glucose (AM202, Asan Pharmaceutical Co., Ltd., Korea), triglyceride (AM157, Asan Pharmaceutical Co., Ltd.), total cholesterol (AM202, Asan Pharmaceutical Co., Ltd.), AST and ALT (Asan Pharmaceutical Co., Ltd.) were analyzed using enzymatic assay kits.
(§10) At 10 weeks of high-fat diet feeding, the mice were sacrificed by cervical dislocation to obtain serum. For histological examination, the liver, white adipose tissue (WAT), brown adipose tissue (BAT) and kidney were fixed with formalin (50-00-0, Junsei, Japan), and the remaining organs were stored at −70° C. The blood sampled from the heart was coagulated to obtain serum which was then stored at −70° C.
as §9

[6] = tested on: male mice (C57BL/6) fed high-fat diet; assay: Histological examination of liver, WAT, BAT and kidney; format: in vivo; conditions: HFD mice, 10 weeks
Procedure: as §6, §10
For histological examination, the major organs and adipose were fixed in 4% neutral buffered formalin and embedded in paraffin blocks, and the paraffin blocks were sectioned at 5 μm and stained with hymatoxylin (MHS-16, Sigma-Aldrich, USA) and eosin (HT110116, Sigma-Aldrich). The prepared tissue samples were mounted in glycerin gel mounting media (SP15-100, Fisher Scientific, USA), covered with cover glass, and observed with a microscope (IX71, OLYMPUS, USA). The tissue was imaged with the camera equipped in the microscope.

[7] = 8 weeks, sample in drinking water (1/500 per day), Tables 6, 9, 12
[8] = HFD mice serum, compared with reference diet, HFD or other group

O=C(CO)[C@@H](O)[C@H](O)[C@H](O)CO [Fruc 12.4, fructose]
PT clotting time prolongation relative to purified water, Mean (plasma [1]; Table 4): 0.54% | aPTT clotting time prolongation relative to purified water, Mean (plasma [2]): 0.58%

NCCS(=O)(=O)O [DT15]
Body weight gain, Mean ([3]; 2 weeks, sample in drinking water (1/500 per day), Tables 6, 9, 12): 4.40 g | Body weight gain, Mean [3, 7]: 11.58 g | body weight gain compared to high-fat diet (HFD) alone (in words) [3]: significant reduction in body weight gain | fasting glucose level (in words) [4]: lower than that of the mice administered with high-fat diet (HFD), and were similar to the blood glucose levels of normal mice | glucose control ability in GTT compared with HFD alone (in words) [4]: significantly higher than that of the group administered with HFD alone | Glucose level ([4]; GTT 0 min (fasting)): 121.25 mg/dL | Glucose level ([4]; GTT 30 min): 335.25 mg/dL | Glucose level ([4]; GTT 60 min): 295.25 mg/dL | Glucose level ([4]; GTT 90 min): 193.75 mg/dL | Glucose level ([4]; GTT 120 min): 126.25 mg/dL | triglyceride level (in words) ([5]; HFD mice serum, compared with normal/reference diet or other group): significantly lower than that of DT19 | ALT level (in words) [5, 8]: lower than those of DT19 | AST level (in words) [5, 8]: lower than those of DT19 | ALT level ([5]; blood, mean): 14.02 IU/L | AST level ([5]; blood, mean): 98.96 IU/L | Triglyceride level ([5]; blood, mean): 53.62 mg/dL | accumulation of adipose in brown adipose tissue (histology) [6]: decreased | development of fatty liver (histology) [6]: decreased | nephrotoxicity (histology) ([6]; kidney): did not appear

CN(C)C(=N)N=C(N)N [Metformin, metformin]
Body weight gain, Mean ([3]; 1 week, Table 15 experiment, sample in drinking water (1/750 per day)): 2.445 g | Body weight gain ([3]; 2 weeks): 2.503 g | Body weight gain ([3]; 3 weeks): 4.020 g | Body weight gain, Mean ([3]; 4 weeks, Table 15 experiment, sample in drinking water (1/750 per day)): 4.600 g | Body weight gain ([3]; 4 weeks): 4.600 g | Body weight gain ([3]; 5 weeks): 6.093 g | Body weight gain ([3]; 6 weeks): 7.250 g | Body weight gain ([3]; 7 weeks): 6.263 g | Body weight gain, Mean ([3]; 8 weeks, Table 15 experiment, sample in drinking water (1/750 per day)): 8.238 g

O=C(CO)[C@@H](O)[C@H](O)[C@H](O)CO [Fruc 6.2, fructose]
PT clotting time prolongation relative to purified water, Mean (plasma [1]; Table 4): 0.54% | aPTT clotting time prolongation relative to purified water, Mean (plasma [2]): −0.20%

NCCS(=O)(=O)O [DT19, taurine, reference compound]
Body weight gain, Mean [3, 7]: 9.52 g | body weight gain compared to high-fat diet (HFD) alone (in words) [3]: significant reduction in body weight gain | fasting glucose level (in words) [4]: lower than that of the mice administered with high-fat diet (HFD), and were similar to the blood glucose levels of normal mice | glucose control ability in GTT compared with HFD alone (in words) [4]: significantly higher than that of the group administered with HFD alone

CC(=O)Oc1ccccc1C(=O)O [Asp, aspirin]
PT clotting time prolongation relative to purified water, Mean (plasma [1]; Table 2): 9.90%

Reference: patent publication US9877938B2 (priority 2014, dated 2018)
